The source of these data is the NIST ThermoML archive (doi:10.1021/je200707b).

The conditions of data set [1]: 101.33 kPa, Liquid; for viscosity: Falling or rolling sphere viscometry; for mass density: Vibrating tube method.
Data set [2] can be described thus: refractive index (Na D-line) (dimensionless). Particulars: 298.15 K; 101.33 kPa; Liquid; Standard Abbe refractometry.

The structures appear in SMILES notation. ± gives the expanded uncertainty stated by the source.

As to `CCCCO` [butan-1-ol], the viscosity (in general, the resistance of a fluid to flow) in data set [1] (293.15 K) was determined as 2.983 ± 0.082 mPa·s; in data set [1] (298.15 K) it was 2.617 ± 0.072 mPa·s; in data set [1] (303.15 K), 2.306 ± 0.063 mPa·s; in data set [1] (308.15 K) it was 2.04 ± 0.056 mPa·s; in data set [1] (313.15 K) it was 1.811 ± 0.05 mPa·s. Also, the mass density (as a rule, the mass of a sample divided by its volume) was found to be 809.7 ± 0.38 kg/m3 in data set [1] (293.15 K); 805.9 ± 0.38 kg/m3 in data set [1] (298.15 K); 802.05 ± 0.37 kg/m3 in data set [1] (303.15 K); 798.17 ± 0.37 kg/m3 in data set [1] (308.15 K); 794.26 ± 0.37 kg/m3 in data set [1] (313.15 K). Besides, the refractive index (commonly the speed of light in vacuum divided by its phase velocity in the sample) in data set [2] was 1.3973 ± 0.0011.
`CC(=O)O.CCCCN` [butylammonium acetate]: the viscosity in data set [1] (293.15 K) was found to be 771.69 ± 71 mPa·s; in data set [1] (298.15 K), 546.35 ± 44 mPa·s; in data set [1] (303.15 K) it was 397.17 ± 28 mPa·s; in data set [1] (308.15 K), 294.59 ± 18 mPa·s; in data set [1] (313.15 K), 222.24 ± 12 mPa·s. Moreover, the mass density is given as 959.61 ± 0.42 kg/m3 in data set [1] (293.15 K); 956.44 ± 0.42 kg/m3 in data set [1] (298.15 K); 953.33 ± 0.42 kg/m3 in data set [1] (303.15 K); 950.15 ± 0.42 kg/m3 in data set [1] (308.15 K); 946.98 ± 0.42 kg/m3 in data set [1] (313.15 K). Besides, the refractive index in data set [2] worked out at 1.4426 ± 0.0011.
`CCO` [ethanol]: the viscosity came out at 1.241 ± 0.034 mPa·s in data set [1] (293.15 K); 1.128 ± 0.031 mPa·s in data set [1] (298.15 K); 1.029 ± 0.028 mPa·s in data set [1] (303.15 K); 0.92 ± 0.025 mPa·s in data set [1] (308.15 K); 0.842 ± 0.023 mPa·s in data set [1] (313.15 K). Besides, the mass density was 789.54 ± 0.37 kg/m3 in data set [1] (293.15 K); 785.25 ± 0.37 kg/m3 in data set [1] (298.15 K); 780.93 ± 0.37 kg/m3 in data set [1] (303.15 K); 776.57 ± 0.37 kg/m3 in data set [1] (308.15 K); 772.18 ± 0.37 kg/m3 in data set [1] (313.15 K). Further, the refractive index in data set [2] is reported as 1.3594 ± 0.0011.
As for `CO` [methanol], the viscosity in data set [1] (293.15 K) is 0.588 ± 0.016 mPa·s; in data set [1] (298.15 K), 0.557 ± 0.015 mPa·s; in data set [1] (303.15 K), 0.519 ± 0.014 mPa·s; in data set [1] (308.15 K), 0.49 ± 0.013 mPa·s; in data set [1] (313.15 K) it was 0.462 ± 0.013 mPa·s. The mass density in data set [1] (293.15 K) is given as 791.28 ± 0.37 kg/m3; in data set [1] (298.15 K), 786.56 ± 0.37 kg/m3; in data set [1] (303.15 K), 781.83 ± 0.37 kg/m3; in data set [1] (308.15 K) it was 777.07 ± 0.37 kg/m3; in data set [1] (313.15 K), 772.29 ± 0.37 kg/m3. Moreover, the refractive index in data set [2] amounted to 1.3265 ± 0.0011.
Consider `CCCO` [propan-1-ol], for which the viscosity in data set [1] (293.15 K) is given as 2.229 ± 0.061 mPa·s; in data set [1] (298.15 K) it was 1.975 ± 0.054 mPa·s; in data set [1] (303.15 K), 1.757 ± 0.048 mPa·s; in data set [1] (308.15 K), 1.568 ± 0.043 mPa·s; in data set [1] (313.15 K), 1.406 ± 0.039 mPa·s. For the same compound, the mass density is recorded as 803.55 ± 0.37 kg/m3 in data set [1] (293.15 K); 799.55 ± 0.37 kg/m3 in data set [1] (298.15 K); 795.52 ± 0.37 kg/m3 in data set [1] (303.15 K); 791.44 ± 0.37 kg/m3 in data set [1] (308.15 K); 787.34 ± 0.37 kg/m3 in data set [1] (313.15 K). Also, the refractive index in data set [2] came out at 1.3834 ± 0.0011.
